PubChem BioAssay AID1963958 (Molecular Pharmacology Branch, DTP, NCI, 2024)

Tested on: MDA-MB-231 multicell spheroids, viability
Assay: Anticancer human tumor MDA-MB-231 cell line growth inhibition [PI3K];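 further: spheroids exposed to agents for seven days before reading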;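 on viability, T/C: percent of vehicle control luminescence with DMSO treated spheroids as 100%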
Settings: for IC50: curve of first compound; for viability, T/C: stronger effect = lower value; active means viability on the fitted dose curve at most 10% of control; inactive means the rest
How it was run: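 Spheroid viability read-out. Co-cultures contained the tumor line plus HUVEC and human MSCs. Each agent was paired with a PI3K inhibitor (inavolisib, alpelisib, duvelisib, copanlisib) across half-log dilutions starting at clinical Cmax, or at 10 microM when Cmax was unknown.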

[1] = second compound 0.0316 µM, first compound 0.0316 µM
[2] = second compound 0.0316 µM, first compound 0.1 µM
[3] = second compound 0.0316 µM, first compound 0.316 µM
[4] = second compound 0.0316 µM, first compound 1 µM
[5] = second compound 0.0316 µM, first compound 3.16 µM
[6] = second compound 0.0316 µM, first compound 10 µM
[7] = second compound 0.1 µM, first compound 0.0316 µM
[8] = second compound 0.1 µM, first compound 0.1 µM
[9] = second compound 0.1 µM, first compound 0.316 µM
[10] = second compound 0.1 µM, first compound 1 µM
[11] = second compound 0.1 µM, first compound 3.16 µM
[12] = second compound 0.1 µM, first compound 10 µM
[13] = second compound 0.316 µM, first compound 0.0316 µM
[14] = second compound 0.316 µM, first compound 0.1 µM
[15] = second compound 0.316 µM, first compound 0.316 µM
[16] = second compound 0.316 µM, first compound 1 µM
[17] = second compound 0.316 µM, first compound 3.16 µM
[18] = second compound 0.316 µM, first compound 10 µM
[19] = second compound 1 µM, first compound 0.0316 µM
[20] = second compound 1 µM, first compound 0.1 µM
[21] = second compound 1 µM, first compound 0.316 µM
[22] = second compound 1 µM, first compound 1 µM
[23] = second compound 1 µM, first compound 3.16 µM
[24] = second compound 1 µM, first compound 10 µM
[25] = second compound 3.16 µM, first compound 0.0316 µM
[26] = second compound 3.16 µM, first compound 0.1 µM
[27] = second compound 3.16 µM, first compound 0.316 µM
[28] = second compound 3.16 µM, first compound 1 µM
[29] = second compound 3.16 µM, first compound 3.16 µM
[30] = second compound 3.16 µM, first compound 10 µM
[31] = second compound 10 µM, first compound 0.0316 µM
[32] = second compound 10 µM, first compound 0.1 µM
[33] = second compound 10 µM, first compound 0.316 µM
[34] = second compound 10 µM, first compound 1 µM
[35] = second compound 10 µM, first compound 3.16 µM
[36] = second compound 10 µM, first compound 10 µM

CC1(C)CCC(CN2CCN(c3ccc(C(=O)NS(=O)(=O)c4ccc(NCC5CCOCC5)c([N+](=O)[O-])c4)c(Oc4cnc5[nH]ccc5c4)c3)CC2)=C(c2ccc(Cl)cc2)C1 + CC(Nc1ncnc2nc[nH]c12)c1cc2cccc(Cl)c2c(=O)n1-c1ccccc1
6.18 µM: IC50 (second compound 1 µM)
3.33 µM: IC50 (second compound 10 µM)
inactive: viability, T/C [1] 104% | viability, T/C [2] 96.9% | viability, T/C [3] 110% | viability, T/C [4] 102% | viability, T/C [5] 112% | viability, T/C [6] 33.9% | viability, T/C [7] 92.5% | viability, T/C [8] 92.1% | viability, T/C [9] 100% | viability, T/C [10] 107% | viability, T/C [11] 103% | viability, T/C [12] 26.6% | viability, T/C [13] 90.5% | viability, T/C [14] 99% | viability, T/C [15] 105% | viability, T/C [16] 98.2% | viability, T/C [17] 108% | viability, T/C [18] 37.1% | viability, T/C [19] 85.9% | viability, T/C [20] 86.6% | viability, T/C [21] 75.6% | viability, T/C [22] 92.4% | viability, T/C [23] 91.8% | viability, T/C [24] 23.7% | viability, T/C [25] 70% | viability, T/C [26] 64.7% | viability, T/C [27] 65.3% | viability, T/C [28] 66.6% | viability, T/C [29] 72.2% | viability, T/C [30] 27.7% | viability, T/C [31] 50.6% | viability, T/C [32] 50.4% | viability, T/C [33] 49.6% | viability, T/C [34] 50.5% | viability, T/C [35] 53.7% | viability, T/C [36] 28.4%
5.26 µM: IC50 (second compound 3.16 µM)
6.9 µM: IC50 (second compound 0.1 µM)
7.72 µM: IC50 (second compound 0.0316 µM)
7.92 µM: IC50 (second compound 0.316 µM)

C[C@@H](NC(=O)c1ncnc(N)c1Cl)c1ncc(C(=O)Nc2cc(C(F)(F)F)c(Cl)cn2)s1 + CC(Nc1ncnc2nc[nH]c12)c1cc2cccc(Cl)c2c(=O)n1-c1ccccc1
8.16 µM: IC50 (second compound 1 µM)
> 10 µM: IC50 (second compound 0.0316 µM) | IC50 (second compound 0.1 µM) | IC50 (second compound 0.316 µM)
1.38 µM: IC50 (second compound 3.16 µM)
inactive: viability, T/C [1] 142% | viability, T/C [2] 120% | viability, T/C [3] 110% | viability, T/C [4] 85.6% | viability, T/C [5] 75.6% | viability, T/C [6] 62.6% | viability, T/C [7] 140% | viability, T/C [8] 119% | viability, T/C [9] 106% | viability, T/C [10] 89.9% | viability, T/C [11] 72.7% | viability, T/C [12] 62.4% | viability, T/C [13] 125% | viability, T/C [14] 124% | viability, T/C [15] 106% | viability, T/C [16] 80.5% | viability, T/C [17] 68% | viability, T/C [18] 55.9% | viability, T/C [19] 114% | viability, T/C [20] 101% | viability, T/C [21] 79.1% | viability, T/C [22] 73.8% | viability, T/C [23] 60.1% | viability, T/C [24] 46.8% | viability, T/C [25] 95.5% | viability, T/C [26] 79.5% | viability, T/C [27] 60.6% | viability, T/C [28] 51.7% | viability, T/C [29] 47.7% | viability, T/C [30] 37.3% | viability, T/C [31] 72% | viability, T/C [32] 58.6% | viability, T/C [33] 47.8% | viability, T/C [34] 45.5% | viability, T/C [35] 33.6% | viability, T/C [36] 26.1%
0.334 µM: IC50 (second compound 10 µM)

Cn1ncnc1[C@H]1c2n[nH]c(=O)c3cc(F)cc(c23)N[C@@H]1c1ccc(F)cc1 + CC(Nc1ncnc2nc[nH]c12)c1cc2cccc(Cl)c2c(=O)n1-c1ccccc1
> 0.1 µM: IC50 (second compound 0.0316 µM) | IC50 (second compound 0.1 µM) | IC50 (second compound 0.316 µM) | IC50 (second compound 1 µM) | IC50 (second compound 3.16 µM)
inactive: viability, T/C (second compound 0.0316 µM, first compound 0.000316 µM) 106% | viability, T/C (second compound 0.0316 µM, first compound 0.001 µM) 108% | viability, T/C (second compound 0.0316 µM, first compound 0.00316 µM) 97.6% | viability, T/C (second compound 0.0316 µM, first compound 0.01 µM) 92.5% | viability, T/C [1] 98.9% | viability, T/C [2] 77.1% | viability, T/C (second compound 0.1 µM, first compound 0.000316 µM) 99.7% | viability, T/C (second compound 0.1 µM, first compound 0.001 µM) 99.7% | viability, T/C (second compound 0.1 µM, first compound 0.00316 µM) 103% | viability, T/C (second compound 0.1 µM, first compound 0.01 µM) 94% | viability, T/C [7] 92% | viability, T/C [8] 79.2% | viability, T/C (second compound 0.316 µM, first compound 0.000316 µM) 94.7% | viability, T/C (second compound 0.316 µM, first compound 0.001 µM) 103% | viability, T/C (second compound 0.316 µM, first compound 0.00316 µM) 86.8% | viability, T/C (second compound 0.316 µM, first compound 0.01 µM) 93.3% | viability, T/C [13] 86.9% | viability, T/C [14] 76.1% | viability, T/C (second compound 1 µM, first compound 0.000316 µM) 87.2% | viability, T/C (second compound 1 µM, first compound 0.001 µM) 81.9% | viability, T/C (second compound 1 µM, first compound 0.00316 µM) 80.8% | viability, T/C (second compound 1 µM, first compound 0.01 µM) 78% | viability, T/C [19] 73.4% | viability, T/C [20] 65% | viability, T/C (second compound 3.16 µM, first compound 0.000316 µM) 63.7% | viability, T/C (second compound 3.16 µM, first compound 0.001 µM) 60.9% | viability, T/C (second compound 3.16 µM, first compound 0.00316 µM) 54.1% | viability, T/C (second compound 3.16 µM, first compound 0.01 µM) 60.6% | viability, T/C [25] 49.8% | viability, T/C [26] 52.3% | viability, T/C (second compound 10 µM, first compound 0.000316 µM) 48.9% | viability, T/C (second compound 10 µM, first compound 0.001 µM) 47.6% | viability, T/C (second compound 10 µM, first compound 0.00316 µM) 46.8% | viability, T/C (second compound 10 µM, first compound 0.01 µM) 46.4% | viability, T/C [31] 46% | viability, T/C [32] 38.8%
< 0.000316 µM: IC50 (second compound 10 µM)
